Like-named read-outs stand apart in the source and are kept apart here.
Key:
[1] = cited from earlier work
[2] = tested on: gentamicin resistant Pseudomonas aeruginosa; details: MIC studies performed in the US; cited from earlier work
[3] = Pilot ear depletion study: gentamicin concentration in ear wax; format: in vivo
Protocol: An ear depletion study was performed to assess gentamicin concentration in ear wax. It was determined that the gentamicin concentrations detected in the ear wax were high enough to be effective against gentamicin resistant Pseudomonas aeruginosa.

Molecule	solubility ([1]; in acetone and chloroform)	solubility ([1]; in methanol, ethanol, and isopropanol)	solubility ([1]; in tetrahydro furan)	solubility ([1]; in water)	highest MIC [2] [µg/mL]	Total Gentamicin Concentration (mg/g) [Mean ± STD] ([3]; 24 hours post dose, Left ear) [mg/g]	Total Gentamicin Concentration (mg/g) [Mean ± STD] ([3]; 24 hours post dose, Right ear) [mg/g]	Total Gentamicin Concentration (mg/g) [Mean ± STD] ([3]; 72 hours post dose, Left ear) [mg/g]	Total Gentamicin Concentration (mg/g) [Mean ± STD] ([3]; 72 hours post dose, Right ear) [mg/g]	Total Gentamicin Concentration (mg/g) [Mean ± STD] ([3]; 168 hours post dose, Left ear) [mg/g]	Total Gentamicin Concentration (mg/g) [Mean ± STD] ([3]; 168 hours post dose, Right ear) [mg/g]	Total Gentamicin Concentration (mg/g) [Mean ± STD] ([3]; 240 hours post dose, Left ear) [mg/g]	Total Gentamicin Concentration (mg/g) [Mean ± STD] ([3]; 240 hours post dose, Right ear) [mg/g]	Total Gentamicin Concentration (mg/g) [Mean ± STD] ([3]; 336 hours post dose, Left ear) [mg/g]	Total Gentamicin Concentration (mg/g) [Mean ± STD] ([3]; 336 hours post dose, Right ear) [mg/g]
C[C@@H]1C[C@H]2[C@@H]3CCC4=CC(=O)C=C[C@]4(C)[C@@]3(Cl)[C@@H](O)C[C@]2(C)[C@@]1(OC(=O)c1ccco1)C(=O)CCl [Mometasone Furoate, 9,21-Dichloro-1 1 (beta), 17-dihydroxy-16 (alpha)-methylpregna-1,4-diene-3,20-dione 17-(2 Furoate)]	soluble	slightly soluble	freely soluble	practically insoluble											
Gentamicin					64	11.51 ± 8.68	11.96 ± 10.11	8.15 ± 2.94	8.66 ± 5.00	3.78 ± 1.55	3.97 ± 3.38	1.87 ± 1.49	2.29 ± 1.36	1.46 ± 2.08	2.25 ± 2.44

— patent publication US20250049827A1, “A PHARMACEUTICAL COMPOSITION FOR THE TREATMENT OF OTIC INFECTIONS” (Intervet Inc., priority 2021, published 2025)
